Legend:
[1] = target: Kappa-type opioid receptor (Homo sapiens, UniProt P41145); experiment: DRUGMATRIX: Opiate kappa (OP2, KOP) radioligand binding (ligand: [3H] Diprenorphine); assay type: cell membranes, HEK293, Membrane; conditions: Not Active = under 50% inhibition at 10 µM
[2] = target: T1, C-X-C chemokine receptor type 2 (Homo sapiens, UniProt P25025); assay type: cell membranes, CHO-K1, Membrane; conditions: cho-k1; also: in other assays of this panel Not Active means under 50% inhibition at 10 µM
T1 sequence (P25025 whole entry): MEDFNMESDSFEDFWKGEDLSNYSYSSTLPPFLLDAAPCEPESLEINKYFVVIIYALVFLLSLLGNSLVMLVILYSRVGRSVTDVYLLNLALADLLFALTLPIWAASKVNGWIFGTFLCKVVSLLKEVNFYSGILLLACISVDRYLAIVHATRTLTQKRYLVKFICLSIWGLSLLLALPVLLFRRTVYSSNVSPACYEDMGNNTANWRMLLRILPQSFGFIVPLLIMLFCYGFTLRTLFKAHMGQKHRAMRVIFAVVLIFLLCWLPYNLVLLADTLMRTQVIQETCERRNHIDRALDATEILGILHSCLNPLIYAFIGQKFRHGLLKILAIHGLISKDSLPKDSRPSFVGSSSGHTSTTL

[3] = DRUGMATRIX: Calcium Channel Type L, Phenylalkylamine radioligand binding (ligand: [3H] (-)-Desmethoxyverapamil (D-888)); assay type: cell membranes, Rattus norvegicus, Wistar, Brain, Membrane; conditions: Not Active = under 50% inhibition at 10 µM
[4] = target: T2, Thromboxane-A synthase (Homo sapiens, UniProt P24557); experiment: biochemical; assay type: tissue-based, Platelet;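 also: enzyme inhibition assay with PGH2 supplied as substrate; in other assays of this panel Not Active means under 50% inhibition at 10 µM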
T2 sequence (P24557 whole entry): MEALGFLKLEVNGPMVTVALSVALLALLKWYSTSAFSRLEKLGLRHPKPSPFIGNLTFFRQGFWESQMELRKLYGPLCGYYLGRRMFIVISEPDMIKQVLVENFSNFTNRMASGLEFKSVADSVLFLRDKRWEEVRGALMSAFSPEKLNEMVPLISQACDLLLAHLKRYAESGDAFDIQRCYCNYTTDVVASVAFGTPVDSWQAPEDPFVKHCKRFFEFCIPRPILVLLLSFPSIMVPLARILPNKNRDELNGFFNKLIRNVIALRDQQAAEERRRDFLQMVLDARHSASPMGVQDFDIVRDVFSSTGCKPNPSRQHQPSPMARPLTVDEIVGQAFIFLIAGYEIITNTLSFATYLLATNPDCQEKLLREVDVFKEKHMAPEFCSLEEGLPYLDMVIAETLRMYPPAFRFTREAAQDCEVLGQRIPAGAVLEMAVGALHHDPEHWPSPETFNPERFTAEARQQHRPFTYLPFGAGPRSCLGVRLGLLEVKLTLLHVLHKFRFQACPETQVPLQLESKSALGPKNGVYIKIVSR

[5] = DRUGMATRIX: Calcium Channel Type L, Dihydropyridine radioligand binding (ligand: [3H] Nitrendipine); assay type: cell membranes, Rattus norvegicus, Wistar, Cerebral cortex, Membrane; conditions: Not Active = under 50% inhibition at 10 µM
[6] = target: T3, 5-hydroxytryptamine receptor 1A (Rattus norvegicus, UniProt P19327); assay type: cell membranes, CHO-K1, Membrane; conditions: cho-k1; also: in other assays of this panel Not Active means under 50% inhibition at 10 µM
T3 sequence (P19327 whole entry): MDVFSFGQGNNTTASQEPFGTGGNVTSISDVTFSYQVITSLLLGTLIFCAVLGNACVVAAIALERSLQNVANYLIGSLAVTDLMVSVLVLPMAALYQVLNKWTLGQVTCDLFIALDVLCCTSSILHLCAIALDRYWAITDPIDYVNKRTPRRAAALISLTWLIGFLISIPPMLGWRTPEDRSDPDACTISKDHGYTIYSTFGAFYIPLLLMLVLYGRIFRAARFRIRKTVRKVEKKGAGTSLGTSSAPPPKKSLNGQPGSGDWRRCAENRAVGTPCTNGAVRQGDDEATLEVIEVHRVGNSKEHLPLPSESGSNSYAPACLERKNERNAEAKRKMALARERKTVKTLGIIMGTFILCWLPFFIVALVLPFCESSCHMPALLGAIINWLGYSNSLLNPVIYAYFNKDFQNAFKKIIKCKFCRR

[7] = DRUGMATRIX: Tumor Necrosis Factor (TNF), Non-Selective radioligand binding (ligand: [125I] TNF-alpha); assay type: cell membranes, Membrane; conditions: u-937; Not Active = under 50% inhibition at 10 µM

Kappa-type opioid receptor, sequence (P41145 whole entry): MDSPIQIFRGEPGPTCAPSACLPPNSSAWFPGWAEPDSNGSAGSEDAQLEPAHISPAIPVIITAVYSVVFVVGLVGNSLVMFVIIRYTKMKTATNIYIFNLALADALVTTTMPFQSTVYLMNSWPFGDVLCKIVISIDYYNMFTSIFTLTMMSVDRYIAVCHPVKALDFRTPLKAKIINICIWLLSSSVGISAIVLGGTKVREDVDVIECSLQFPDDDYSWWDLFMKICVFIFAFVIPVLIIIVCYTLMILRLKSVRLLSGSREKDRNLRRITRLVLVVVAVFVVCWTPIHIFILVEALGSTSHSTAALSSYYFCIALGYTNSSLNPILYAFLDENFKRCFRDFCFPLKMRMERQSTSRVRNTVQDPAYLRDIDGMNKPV

| Structure (SMILES) | Ki [1] | IC50 ([1]; read-out: IC50) | IC50 [2] | IC50 [3] | Ki [3] | IC50 ([4]; platelet) | IC50 [5] | Ki [5] | IC50 [6] | IC50 [7] | Ki [7] | IC50 ([1]; hek293) | IC50 ([4]; read-out: IC50) |
| --- | --- | --- | --- | --- | --- | --- | --- | --- | --- | --- | --- | --- | --- |
| Clc1cc(Cl)c(OCC#CI)cc1Cl [HALOPROGIN] | 459 nM | 1150 nM | Not Active | Not Active | Not Active | Not Active | Not Active | Not Active | Not Active | Not Active | Not Active | – | – |
| O=c1[nH]cnc2c1ncn2[C@H]1CC[C@@H](CO)O1 [DIDANOSINE] | – | – | Not Active | Not Active | Not Active | Not Active | Not Active | Not Active | Not Active | Not Active | Not Active | Not Active | – |
| Cl.NC[C@H]1CC[C@H](C(=O)Oc2ccc(CCC(=O)O)cc2)CC1 [CETRAXATE HYDROCHLORIDE] | – | – | Not Active | Not Active | Not Active | Not Active | Not Active | Not Active | Not Active | Not Active | Not Active | Not Active | – |
| COc1cc(/C=C/C(=O)O)ccc1O [FERULATE] | – | – | Not Active | Not Active | Not Active | Not Active | Not Active | Not Active | Not Active | Not Active | Not Active | Not Active | – |
| O=C(O)CCc1nc(-c2ccccc2)c(-c2ccccc2)o1 [OXAPROZIN] | – | – | Not Active | Not Active | Not Active | Not Active | Not Active | Not Active | Not Active | Not Active | Not Active | Not Active | – |
| c1ccc(Cn2ccnc2)cc1 | – | – | Not Active | Not Active | Not Active | – | Not Active | Not Active | Not Active | Not Active | Not Active | Not Active | 602 nM |
| C[C@H]1C[C@H]2[C@@H]3CCC4=CC(=O)C=C[C@]4(C)[C@@]3(F)[C@@H](O)C[C@]2(C)[C@@]1(O)C(=O)CO [BETAMETHASONE] | – | – | Not Active | Not Active | Not Active | Not Active | Not Active | Not Active | Not Active | Not Active | Not Active | Not Active | – |
| Nc1nc(N)c2nc(CNc3ccc(C(=O)N[C@@H](CCC(=O)O)C(=O)O)cc3)cnc2n1 [AMINOPTERIN] | – | – | Not Active | Not Active | Not Active | Not Active | Not Active | Not Active | Not Active | Not Active | Not Active | Not Active | – |
| CC(=O)Nc1ccc2c(c1)Cc1ccccc1-2 [2-ACETYLAMINOFLUORENE] | – | – | Not Active | Not Active | Not Active | Not Active | Not Active | Not Active | Not Active | Not Active | Not Active | Not Active | – |
| C#C[C@]1(O)CC[C@H]2[C@@H]3CCC4=CC(=O)CC[C@@H]4[C@H]3CC[C@@]21C [NORETHINDRONE] | – | – | Not Active | Not Active | Not Active | Not Active | Not Active | Not Active | Not Active | Not Active | Not Active | Not Active | – |
| CC[C@H]1OC(=O)[C@H](C)[C@@H](O[C@H]2C[C@@](C)(OC)[C@@H](O)[C@H](C)O2)[C@H](C)[C@@H](O[C@@H]2O[C@H](C)C[C@H](N(C)C)[C@H]2O)[C@](C)(O)C[C@@H](C)C(=O)[C@H](C)[C@@H](O)[C@]1(C)O [ERYTHROMYCIN] | – | – | Not Active | Not Active | Not Active | Not Active | Not Active | Not Active | Not Active | Not Active | Not Active | Not Active | – |
| c1ccc2c(c1)Nc1ccccc1S2 [PHENOTHIAZINE] | – | – | Not Active | Not Active | Not Active | Not Active | Not Active | Not Active | Not Active | Not Active | Not Active | Not Active | – |
| C[C@H](C(=O)O)c1ccc2oc(-c3ccc(F)cc3)nc2c1 [FLUNOXAPROFEN] | – | – | Not Active | Not Active | Not Active | Not Active | Not Active | Not Active | Not Active | Not Active | Not Active | Not Active | – |
| CC1(COc2ccc(CC3SC(=O)NC3=O)cc2)CCCCC1 (stereo unspecified) [CIGLITAZONE] | – | – | Not Active | Not Active | Not Active | Not Active | Not Active | Not Active | Not Active | Not Active | Not Active | Not Active | – |
| C[N+](C)(C)CCOP(=O)([O-])OC[C@H](O)CO | – | – | Not Active | Not Active | Not Active | Not Active | Not Active | Not Active | Not Active | Not Active | Not Active | Not Active | – |
| CCC1(c2ccccc2)C(=O)NC(=O)NC1=O [PHENOBARBITAL] | – | – | Not Active | Not Active | Not Active | Not Active | Not Active | Not Active | Not Active | Not Active | Not Active | Not Active | – |
| O=C(O)COC(=O)Cc1ccccc1Nc1c(Cl)cccc1Cl [ACECLOFENAC] | – | – | Not Active | Not Active | Not Active | Not Active | Not Active | Not Active | Not Active | Not Active | Not Active | Not Active | – |
